Measured values from patent US20140005163A1 (NOVARTIS AG, priority 2010, published 2014).

Assays:
[1] = molecular target: T1, PI3K beta (Homo sapiens, UniProt P42338); assay: PI3K beta kinase assay (Kinase-Glo luminescence); format: biochemical
T1 construct: for the full-length p110-b subunit are generated and fused by overlapping PCR; p85(iSH2) fusion partner (see partner chain) (N); His tag (C); made in house; host or cells: baculovirus; Tn5 (Trichoplusia ni) or TiniPro insect cells
Procedure, shortened: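 IC50 is derived by four-parameter logistic curve fitting of Kinase-Glo luminescence, which measures ATP left after a 60 min room-temperature reaction. Conditions are 25 nM His-tagged p85(iSH2)-p110β, 1 μM ATP and 10 μg/mL bovine liver phosphatidylinositol.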

[2] = system: PKB Ser473 phosphorylation in Rat1-myr-HA-p110 beta cells; assay: Reverse protein array assay, PKB Ser473 phosphorylation in Rat1-myr-p110 beta cells; format: cell-based; conditions: 0.5 h, pAkt Ser473, 30 minutes incubation, read-out: p-PKB IC50
Procedure, shortened: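 Compound exposure lasted 30 min in Rat1 cells bearing membrane-targeted HA-p110 isoforms, using 8 serial concentrations. Arrayed lysates, each spotted at four dilutions, gave relative fluorescence signals for phospho-Ser473 PKB.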

[3] = system: S6 Ribosomal Protein phosphorylation Ser235/236 in TSC1 null mouse embryo fibroblast (MEF) cells; assay: Reverse protein array assay, S6 Ribosomal Protein phosphorylation Ser235/236 in TSC1 null MEF cells; format: cell-based; conditions: 1 h, pS6 ribosomal protein Ser235/236, 60 minutes incubation, read-out: p-S6 IC50
Procedure, shortened: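 TSC1−/− MEFs, seeded and held ≥20 h at 37 °C/5% CO2, were exposed to 8-step serial compound dilutions (0.02% DMSO final; DMSO vehicle control) for 60 min at 37 °C. Cells were then lysed on ice for 10 min and lysates spotted onto reverse protein array chips.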

T1 sequence (P42338 with tags, fused parts or gaps limits assumed): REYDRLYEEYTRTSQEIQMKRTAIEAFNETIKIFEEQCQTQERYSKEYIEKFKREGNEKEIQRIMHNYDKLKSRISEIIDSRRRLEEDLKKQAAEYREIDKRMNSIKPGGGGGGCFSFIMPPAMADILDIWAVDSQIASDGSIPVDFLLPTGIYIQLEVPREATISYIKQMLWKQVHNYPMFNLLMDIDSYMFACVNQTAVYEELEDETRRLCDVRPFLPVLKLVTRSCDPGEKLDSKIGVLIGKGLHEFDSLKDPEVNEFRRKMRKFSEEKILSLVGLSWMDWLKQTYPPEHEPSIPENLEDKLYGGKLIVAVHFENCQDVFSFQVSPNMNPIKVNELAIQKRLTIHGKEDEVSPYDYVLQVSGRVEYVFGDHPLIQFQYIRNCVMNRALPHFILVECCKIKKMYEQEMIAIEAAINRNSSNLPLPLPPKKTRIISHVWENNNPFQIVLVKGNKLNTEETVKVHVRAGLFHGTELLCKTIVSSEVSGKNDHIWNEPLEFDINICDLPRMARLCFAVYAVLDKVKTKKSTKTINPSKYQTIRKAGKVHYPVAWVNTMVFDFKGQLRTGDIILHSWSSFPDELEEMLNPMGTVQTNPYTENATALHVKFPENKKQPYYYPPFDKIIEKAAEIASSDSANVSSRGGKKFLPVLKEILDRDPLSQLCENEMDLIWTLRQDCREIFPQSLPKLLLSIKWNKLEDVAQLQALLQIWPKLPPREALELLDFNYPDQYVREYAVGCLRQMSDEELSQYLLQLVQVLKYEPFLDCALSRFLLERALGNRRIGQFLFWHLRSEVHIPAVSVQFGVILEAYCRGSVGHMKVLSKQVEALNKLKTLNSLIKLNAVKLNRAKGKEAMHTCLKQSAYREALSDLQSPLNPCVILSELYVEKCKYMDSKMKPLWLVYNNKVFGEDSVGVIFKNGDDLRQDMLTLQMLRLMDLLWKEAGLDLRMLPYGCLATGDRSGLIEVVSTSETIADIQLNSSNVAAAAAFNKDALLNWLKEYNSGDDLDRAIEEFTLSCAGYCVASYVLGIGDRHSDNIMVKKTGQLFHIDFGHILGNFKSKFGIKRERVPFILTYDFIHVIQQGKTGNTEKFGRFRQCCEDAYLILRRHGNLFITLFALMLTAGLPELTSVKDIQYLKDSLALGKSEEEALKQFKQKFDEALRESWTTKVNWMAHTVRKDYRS

| SMILES | IC50 [1] | IC50 [2] | IC50 [3] |
| --- | --- | --- | --- |
| CCn1cc(-n2c(=O)n(C)c3cnc4ccc(-c5cnc(F)c(NC)c5)cc4c32)c(C)n1 [Example 150.1, 1-(1-Ethyl-3-methyl-1H-pyrazol-4-yl)-8-(6-fluoro-5-methylamino-pyridin-3-yl)-3-methyl-1,3-dihydro-imidazo[4,5-c]quinolin-2-one] | 17 nM | 11 nM | 1 nM |
| CCNc1cc(-c2ccc3ncc4c(c3c2)n(-c2cn(C(C)C)nc2C)c(=O)n4C)cnc1CO [Example 155.3, 8-(5-Ethylamino-6-hydroxymethyl-pyridin-3-yl)-1-(1-isopropyl-3-methyl-1H-pyrazol-4-yl)-3-methyl-1,3-dihydro-imidazo[4,5-c]quinolin-2-one] | 46 nM | < 5 nM | 1 nM |
| CCNC(=O)c1cc(-c2ccc3ncc4c(c3c2)n(-c2cn(C)nc2C)c(=O)n4C)cnc1NC [Example 242.1, 5-[1-(1,3-Dimethyl-1H-pyrazol-4-yl)-3-methyl-2-oxo-2,3-dihydro-1H-imidazo[4,5-c]quinolin-8-yl]-N-ethyl-2-methylamino-nicotinamide] | 67 nM | 94 nM | 2 nM |
| Cc1ncc(-c2ccc3ncc4c(c3c2)n(-c2cn(C)nc2Cl)c(=O)n4C)cc1N [Example 88.1, 8-(5-Amino-6-methyl-pyridin-3-yl)-1-(3-chloro-1-methyl-1H-pyrazol-4-yl)-3-methyl-1,3-dihydro-imidazo[4,5-c]quinolin-2-one] | 28 nM | 8 nM | 2 nM |
| CCn1c(=O)n(-c2cn(C)nc2C)c2c3nc(-c4ccc(OC)c(OC)c4)ccc3ncc21 [Example 251, 8-(3,4-Dimethoxy-phenyl)-1-(1,3-dimethyl-1H-pyrazol-4-yl)-3-ethyl-1,3-dihydro-1,3,5,9-tetraaza-cyclopenta[a]naphthalen-2-one] | 504 nM | 64 nM | 33 nM |

Further lines, with some results ahead:

| IC50 [1] | IC50 [2] | SMILES | IC50 [3] |
| --- | --- | --- | --- |
| 33 nM | 7 nM | CCN(C)c1cncc(-c2ccc3ncc4c(c3c2)n(-c2cn(C)nc2C)c(=O)n4C)c1 [Example 176, 1-(1,3-Dimethyl-1H-pyrazol-4-yl)-8-[5-(ethyl-methyl-amino)-pyridin-3-yl]-3-methyl-1,3-dihydro-imidazo[4,5-c]quinolin-2-one] | 2 nM |
| 49 nM | 22 nM | CCNc1cc(-c2ccc3ncc4c(c3c2)n(-c2c(C)nn(CCO)c2C)c(=O)n4C)cnc1C [Example 210, 8-(5-Ethylamino-6-methyl-pyridin-3-yl)-1-[1-(2-hydroxy-ethyl)-3,5-dimethyl-1H-pyrazol-4-yl]-3-methyl-1,3-dihydro-imidazo[4,5-c]quinolin-2-one] | 32 nM |
| 7 nM | 24 nM | Cn1cc(-n2c(=O)n(C)c3cnc4ccc(-c5cnc(N)c(CO)c5)cc4c32)c(Cl)n1 [Example 169.3, 8-(6-Amino-5-hydroxymethyl-pyridin-3-yl)-1-(3-chloro-1-methyl-1H-pyrazol-4-yl)-3-methyl-1,3-dihydro-imidazo[4,5-c]quinolin-2-one] | 1.32 nM |
| 468 nM | 40 nM | CCOc1cc(-c2ccc3ncc4c(c3c2)n(-c2cn(C)nc2C)c(=O)n4C)cnc1COC [Example 197.1, 1-(1,3-Dimethyl-1H-pyrazol-4-yl)-8-(5-ethoxy-6-methoxymethyl-pyridin-3-yl)-3-methyl-1,3-dihydro-imidazo[4,5-c]quinolin-2-one] | 7 nM |
| 55 nM | 47 nM | CCNc1cc(-c2ccc3ncc4c(c3c2)n(-c2c(C)nn(C)c2C)c(=O)n4C)cnc1CO [Example 155.4, 8-(5-Ethylamino-6-hydroxymethyl-pyridin-3-yl)-3-methyl-1-(1,3,5-trimethyl-1H-pyrazol-4-yl)-1,3-dihydro-imidazo[4,5-c]quinolin-2-one] | 18 nM |
| 17 nM | 38 nM | CCOc1cc(-c2ccc3ncc4c(c3c2)n(-c2cn(CCO)nc2C)c(=O)n4C)cnc1C [Example 211.2, 8-(5-Ethoxy-6-methyl-pyridin-3-yl)-1-[1-(2-hydroxy-ethyl)-3-methyl-1H-pyrazol-4-yl]-3-methyl-1,3-dihydro-imidazo[4,5-c]quinolin-2-one] | 11 nM |
